{"source": "patent US20140296479A1", "about": "“D-APTIDE AND RETRO-INVERSO APTIDE WITH MAINTAINED TARGET AFFINITY AND IMPROVED STABILITY” (GWANGJU INSTITUTE OF SCIENCE AND TECHNOLOGY, priority 2011, published 2014)", "key": {"[1]": {"target": "HSA (Human serum albumin) (Homo sapiens, UniProt P02768)", "assay": "BIAcore X (SPR) affinity for HSA", "type": "binding", "conditions": "for kon: PBS pH 7.4, read-out: ka", "protocol": "(§1) To investigate whether the activity is maintained where Aptamer-Like Peptides specifically binding to HSA (Human serum albumin), i.e., L-AptideHSA are converted into D- and Retro inverso (RI)-form, their affinity to a target was measured. Firstly, 3 peptides, L-AptideHSA ([…], all L-amino acids, SEQ ID NO:42), D-AptideHSA ([…], all D-amino acids, SEQ ID NO:42) and RI-AptideHSA ([…], all D-amino acids), were synthesized by Anigen Inc. (Korea). Their affinity for a target was determined using BIAcore X (Biacore AB, Uppsala, Sweden). HSA of 3000 RU was immobilized on CM5 chip (Biacore). A PBS (pH 7.4) was used as a running buffer, a flow rate was 30 μl/min, and the affinity was determined with BIAevaluation software (Biacore AB, Uppsala, Sweden) after measuring kinetics of various concentrations."}, "[2]": {"target": "T1, fibronectin EDB (Homo sapiens, UniProt P02751)", "T1 construct": "Biotin-EDB of 2000 RU was immobilized on streptavidin SA chip", "assay": "BIAcore X (SPR) affinity for fibronectin EDB", "type": "binding", "protocol": "To investigate whether the activity is maintained where Aptamer-Like Peptides specifically binding to fibronectin EDB, i.e., L-Aptide1EDB are converted into D- and Retro inverso (RI)-form, their affinity to a target was measured. Firstly, 3 peptides, L-Aptide1EDB ([…], all L-amino acids, SEQ ID NO:21), D-Aptide1EDB ([…], all D-amino acids, SEQ ID NO:21) and RI-Aptide1EDB ([…], all D-amino acids), were synthesized by Anigen Inc. (Korea). Their affinity for a target was determined using BIAcore X (Biacore AB, Uppsala, Sweden). Biotin-EDB of 2000 RU was immobilized on streptavidin SA chip (Biacore). A PBS (pH 7.4) was used as a running buffer, a flow rate was 30 μl/min, and the affinity was determined with BIAevaluation software (Biacore AB, Uppsala, Sweden) after measuring kinetics of various concentrations."}, "[3]": {"target": "T2, VEGF121 (Homo sapiens, UniProt P15692)", "T2 sequence (P15692 27-147 isoform P15692-9)": "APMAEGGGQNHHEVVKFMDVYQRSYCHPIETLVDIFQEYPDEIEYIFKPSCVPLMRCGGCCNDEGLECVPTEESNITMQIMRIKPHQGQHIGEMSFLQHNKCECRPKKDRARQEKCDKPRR", "assay": "BIAcore X (SPR) affinity for VEGF", "type": "binding", "protocol": "as §1, with “VEGF (Vascular endothelial growth factor),” for “HSA (Human serum albumin),”, “L-Aptide1VEGF” for “L-AptideHSA”, “NO:23), D-Aptide1VEGF” for “NO:42), D-AptideHSA”, “NO:23)” for “NO:42)”, “RI-Aptide1VEGF” for “RI-AptideHSA”, “VEGF121” for “HSA”"}, "[4]": {"target": "T3, VEGF121 (UniProt P15692-9 27-147)", "T3 construct": "VEGF121, 3000 RU, immobilised on a CM5 chip; also called Vascular endothelial growth factor", "T3 sequence (looked up)": "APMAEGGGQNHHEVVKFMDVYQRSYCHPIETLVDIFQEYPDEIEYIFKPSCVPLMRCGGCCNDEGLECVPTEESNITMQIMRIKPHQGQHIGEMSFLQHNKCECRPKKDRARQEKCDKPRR", "assay": "SPR, BIAcore X; VEGF121 on CM5 chip, peptide as analyte", "protocol": "To investigate whether the activity is maintained where Aptamer-Like Peptides specifically binding to VEGF (Vascular endothelial growth factor), i.e., L-Aptide1VEGF are converted into D- and Retro inverso (RI)-form, their affinity to a target was measured. Firstly, 3 peptides, L-Aptide1VEGF ([…], all L-amino acids, SEQ ID NO:23), D-Aptide1VEGF ([…], all D-amino acids, SEQ ID NO:23) and RI-Aptide1VEGF ([…], all D-amino acids), were synthesized by Anigen Inc. (Korea). Their affinity for a target was determined using BIAcore X (Biacore AB, Uppsala, Sweden). VEGF₁₂₁ of 3000 RU was immobilized on CM5 chip (Biacore)."}, "[5]": {"target": "T4, HSA (Human serum albumin) (human, UniProt P02768 25-609)", "T4 construct": "HSA, 3000 RU, immobilised on a CM5 chip; also called HAS", "T4 sequence (P02768 25-609 limits assumed)": "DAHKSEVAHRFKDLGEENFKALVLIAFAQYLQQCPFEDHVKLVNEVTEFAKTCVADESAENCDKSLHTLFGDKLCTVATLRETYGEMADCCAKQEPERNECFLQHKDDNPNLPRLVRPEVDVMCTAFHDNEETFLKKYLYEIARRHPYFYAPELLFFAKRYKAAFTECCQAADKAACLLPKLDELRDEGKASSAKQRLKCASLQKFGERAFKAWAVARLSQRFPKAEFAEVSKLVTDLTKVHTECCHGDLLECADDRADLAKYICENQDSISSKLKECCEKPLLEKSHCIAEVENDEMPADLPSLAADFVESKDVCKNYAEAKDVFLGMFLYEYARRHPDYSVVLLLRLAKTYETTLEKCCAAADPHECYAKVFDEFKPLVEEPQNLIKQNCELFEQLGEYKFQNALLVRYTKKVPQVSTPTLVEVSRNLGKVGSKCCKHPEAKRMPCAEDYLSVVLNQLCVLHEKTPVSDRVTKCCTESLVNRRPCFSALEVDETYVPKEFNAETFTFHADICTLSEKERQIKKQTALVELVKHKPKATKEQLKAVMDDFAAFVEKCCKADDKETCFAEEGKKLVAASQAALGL", "assay": "SPR, BIAcore X; HSA on CM5 chip, peptide as analyte", "protocol": "as §1, with “(Biacore).” for “(Biacore). A PBS (pH 7.4) was used as a running buffer, a flow rate was 30 μl/min, and the affinity was determined with BIAevaluation software (Biacore AB, Uppsala, Sweden) after measuring kinetics of various concentrations.”"}, "[6]": {"conditions": "biotin-EDB on SA chip, PBS pH 7.4"}, "[7]": {"conditions": "VEGF121 on CM5 chip, PBS pH 7.4"}}, "note": "Where a SMILES comes first, the peptide text is derived from it. Where no end group is shown, it is not given here. [ ]: non-standard residue; d: D form."}
{"molecule": "CC[C@@H](C)[C@@H](NC(=O)CNC(=O)[C@@H](CCCCN)NC(=O)[C@@H](Cc1c[nH]c2ccccc12)NC(=O)[C@H](NC(=O)[C@@H](Cc1c[nH]c2ccccc12)NC(=O)[C@@H](CCCCN)NC(=O)CNC(=O)[C@@H](CC(N)=O)NC(=O)[C@@H](CCC(=O)O)NC(=O)[C@@H](Cc1c[nH]c2ccccc12)NC(=O)[C@H](NC(=O)[C@@H](Cc1c[nH]c2ccccc12)NC(=O)[C@@H](CO)NC(=O)CNC(=O)[C@@H](Cc1ccccc1)NC(=O)[C@@H](CC(N)=O)NC(=O)[C@@H](Cc1ccccc1)NC(=O)[C@@H](Cc1c[nH]cn1)NC(=O)[C@@H](C)NC(=O)[C@H](N)Cc1c[nH]cn1)[C@H](C)O)[C@H](C)O)C(=O)N[C@H](Cc1c[nH]c2ccccc12)C(=O)N[C@H](CC(C)C)C(=O)N1CCC[C@@H]1C(=O)N[C@H](C)C(=O)N[C@H](CCCNC(=N)N)C(=O)O", "note": "[D-AptideHSA] (H-[dH][dA][dH][dF][dN][dF]G[dS][dW][dT][dW][dE][dN]G[dK][dW][dT][dW][dK]G[dI][dW][dL][dP][dA][dR]-OH; N-terminus and C-terminus assumed)", "values": [{"measurement": "kd", "setting": "[1]; HSA on CM5 chip, PBS pH 7.4", "value": 0.014, "unit": "s⁻¹"}, {"measurement": "kon", "setting": "[1]; HSA on CM5 chip", "value": 97000, "unit": "M⁻¹ s⁻¹"}]}
{"molecule": "CC[C@H](C)[C@H](NC(=O)CNC(=O)[C@H](CCCCN)NC(=O)[C@H](Cc1c[nH]c2ccccc12)NC(=O)[C@@H](NC(=O)[C@H](Cc1c[nH]c2ccccc12)NC(=O)[C@H](CCCCN)NC(=O)CNC(=O)[C@H](CC(N)=O)NC(=O)[C@H](CCC(=O)O)NC(=O)[C@H](Cc1c[nH]c2ccccc12)NC(=O)[C@@H](NC(=O)[C@H](Cc1c[nH]c2ccccc12)NC(=O)[C@H](CO)NC(=O)CNC(=O)[C@H](Cc1ccccc1)NC(=O)[C@H](CC(N)=O)NC(=O)[C@H](Cc1ccccc1)NC(=O)[C@H](Cc1c[nH]cn1)NC(=O)[C@H](C)NC(=O)[C@@H](N)Cc1c[nH]cn1)[C@@H](C)O)[C@@H](C)O)C(=O)N[C@@H](Cc1c[nH]c2ccccc12)C(=O)N[C@@H](CC(C)C)C(=O)N1CCC[C@H]1C(=O)N[C@@H](C)C(=O)N[C@@H](CCCNC(=N)N)C(=O)O", "note": "[L-AptideHSA] (H-HAHFNFGSWTWENGKWTWKGIWLPAR-OH; N-terminus and C-terminus assumed)", "values": [{"measurement": "kd", "setting": "[1]; HSA on CM5 chip, PBS pH 7.4", "value": 0.013, "unit": "s⁻¹"}, {"measurement": "kon", "setting": "[1]; HSA on CM5 chip", "value": 95000, "unit": "M⁻¹ s⁻¹"}]}
{"molecule": "CC[C@@H](C)[C@@H](NC(=O)[C@@H](CCCNC(=N)N)NC(=O)[C@@H](CC(C)C)NC(=O)[C@@H](CCC(=O)O)NC(=O)[C@H](N)CCC(N)=O)C(=O)N[C@@H](C(=O)NCC(=O)N[C@H](CCCCN)C(=O)N[C@H](Cc1c[nH]c2ccccc12)C(=O)N[C@@H](C(=O)N[C@H](Cc1c[nH]c2ccccc12)C(=O)N[C@H](CCCCN)C(=O)NCC(=O)N[C@H](CC(N)=O)C(=O)N[C@H](CCC(=O)O)C(=O)N[C@H](Cc1c[nH]c2ccccc12)C(=O)N[C@@H](C(=O)N[C@H](Cc1c[nH]c2ccccc12)C(=O)N[C@H](CO)C(=O)NCC(=O)N[C@@H](C(=O)N[C@H](C)C(=O)N[C@H](CO)C(=O)N[C@H](CO)C(=O)N[C@H](CS)C(=O)N[C@H](Cc1c[nH]cn1)C(=O)O)C(C)C)[C@H](C)O)[C@H](C)O)[C@H](C)CC", "note": "[RI-Aptide1EDB] (H-[dQ][dE][dL][dR][dI][dI]G[dK][dW][dT][dW][dK]G[dN][dE][dW][dT][dW][dS]G[dV][dA][dS][dS][dC][dH]-OH; N-terminus and C-terminus assumed)", "values": [{"measurement": "Kd", "setting": "[2]; [6]", "value": 58, "unit": "nM"}, {"measurement": "koff (dissociation rate constant)", "setting": "[2]; [6]", "value": 0.0011, "unit": "s⁻¹"}, {"measurement": "kon", "setting": "[2]; biotin-EDB on SA chip, PBS pH 7.4, read-out: ka", "value": 19000, "unit": "M⁻¹ s⁻¹"}, {"measurement": "binding to target, in words", "setting": "[2]; compared with L-Aptide", "value": "affinity similar to L-Aptide"}]}
{"molecule": "CC[C@@H](C)[C@@H](NC(=O)[C@@H](Cc1c[nH]c2ccccc12)NC(=O)[C@@H](CC(C)C)NC(=O)[C@H]1CCCN1C(=O)[C@@H](C)NC(=O)[C@H](N)CCCNC(=N)N)C(=O)NCC(=O)N[C@H](CCCCN)C(=O)N[C@H](Cc1c[nH]c2ccccc12)C(=O)N[C@@H](C(=O)N[C@H](Cc1c[nH]c2ccccc12)C(=O)N[C@H](CCCCN)C(=O)NCC(=O)N[C@H](CC(N)=O)C(=O)N[C@H](CCC(=O)O)C(=O)N[C@H](Cc1c[nH]c2ccccc12)C(=O)N[C@@H](C(=O)N[C@H](Cc1c[nH]c2ccccc12)C(=O)N[C@H](CO)C(=O)NCC(=O)N[C@H](Cc1ccccc1)C(=O)N[C@H](CC(N)=O)C(=O)N[C@H](Cc1ccccc1)C(=O)N[C@H](Cc1c[nH]cn1)C(=O)N[C@H](C)C(=O)N[C@H](Cc1c[nH]cn1)C(=O)O)[C@H](C)O)[C@H](C)O", "note": "[RI-AptideHSA] (H-[dR][dA][dP][dL][dW][dI]G[dK][dW][dT][dW][dK]G[dN][dE][dW][dT][dW][dS]G[dF][dN][dF][dH][dA][dH]-OH; N-terminus and C-terminus assumed)", "values": [{"measurement": "Kd", "setting": "[1]; HSA on CM5 chip, PBS pH 7.4", "value": 141, "unit": "nM"}, {"measurement": "kd", "setting": "[1]; HSA on CM5 chip, PBS pH 7.4", "value": 0.0082, "unit": "s⁻¹"}, {"measurement": "kon", "setting": "[1]; HSA on CM5 chip", "value": 58000, "unit": "M⁻¹ s⁻¹"}, {"measurement": "binding to target, in words", "setting": "[1]; compared with L-Aptide", "value": "affinity similar to L-Aptide"}]}
{"molecule": "SQNYKWGKWTWKGNEWTWSGQFFNAH [RI-Aptide1VEGF]", "values": [{"measurement": "binding to target, in words", "setting": "[3]", "value": "barely bound"}, {"measurement": "Kd", "setting": "[3]; [7]", "value": "Non-binding"}, {"measurement": "ka", "setting": "[3]; [7]", "value": "Non-binding"}, {"measurement": "kd", "setting": "[3]; [7]", "value": "Non-binding"}]}
{"molecule": "[dH][dA][dN][dF][dF][dQ]G[dS][dW][dT][dW][dE][dN]G[dK][dW][dT][dW][dK]G[dW][dK][dY][dN][dQ][dS] (designed binder)", "note": "[D-Aptide1VEGF]", "values": [{"measurement": "koff", "setting": "[4]", "value": 0.0066, "unit": "s⁻¹"}]}
{"molecule": "HANFFQGSWTWENGKWTWKGWKYNQS (designed binder, Synthetic 26-mer, all L-amino acids; also called L-AptideVEGF; Aptide1VEGF (L-form))", "note": "[L-Aptide1VEGF]", "values": [{"measurement": "Kd", "setting": "[4]", "value": 30, "unit": "nM"}, {"measurement": "koff", "setting": "[4]", "value": 0.01, "unit": "s⁻¹"}]}
{"molecule": "[dH][dA][dH][dF][dN][dF]G[dS][dW][dT][dW][dE][dN]G[dK][dW][dT][dW][dK]G[dI][dW][dL][dP][dA][dR] (designed binder)", "note": "[D-AptideHSA]", "values": [{"measurement": "Kd", "setting": "[5]", "value": 153, "unit": "nM"}, {"measurement": "koff", "setting": "[5]", "value": 0.014, "unit": "s⁻¹"}]}
{"molecule": "HAHFNFGSWTWENGKWTWKGIWLPAR (designed binder, Synthetic 26-mer, all L-amino acids; also called AptideHSA (L-form))", "note": "[L-AptideHSA]", "values": [{"measurement": "Kd", "setting": "[5]", "value": 142, "unit": "nM"}, {"measurement": "koff", "setting": "[5]", "value": 0.013, "unit": "s⁻¹"}]}
{"molecule": "[dR][dA][dP][dL][dW][dI]G[dK][dW][dT][dW][dK]G[dN][dE][dW][dT][dW][dS]G[dF][dN][dF][dH][dA][dH] (designed binder)", "note": "[RI-AptideHSA]", "values": [{"measurement": "koff", "setting": "[5]", "value": 0.0082, "unit": "s⁻¹"}]}
